In general, IC50 refers to the concentration needed to halve the response being measured. Read a low IC50 as greater potency. For orientation: inhibition means the change of the read-out against control, counted positive when it falls.

Drawing on ChEMBL document CHEMBL1139578, “(1H-imidazo[4,5-c]pyridin-2-yl)-1,2,5-oxadiazol-3-ylamine derivatives: further optimisation as highly potent and selective MSK-1-inhibitors” (Bioorg Med Chem Lett, 2005), this text covers IC50 and inhibition for 23 compounds.

Assay [1] concerns the target T1, Ribosomal protein S6 kinase alpha-5 (Homo sapiens, UniProt O75582). As to the kind of experiment: Inhibitory concentration against MSK-1.
Target sequence in this assay (O75582 whole entry): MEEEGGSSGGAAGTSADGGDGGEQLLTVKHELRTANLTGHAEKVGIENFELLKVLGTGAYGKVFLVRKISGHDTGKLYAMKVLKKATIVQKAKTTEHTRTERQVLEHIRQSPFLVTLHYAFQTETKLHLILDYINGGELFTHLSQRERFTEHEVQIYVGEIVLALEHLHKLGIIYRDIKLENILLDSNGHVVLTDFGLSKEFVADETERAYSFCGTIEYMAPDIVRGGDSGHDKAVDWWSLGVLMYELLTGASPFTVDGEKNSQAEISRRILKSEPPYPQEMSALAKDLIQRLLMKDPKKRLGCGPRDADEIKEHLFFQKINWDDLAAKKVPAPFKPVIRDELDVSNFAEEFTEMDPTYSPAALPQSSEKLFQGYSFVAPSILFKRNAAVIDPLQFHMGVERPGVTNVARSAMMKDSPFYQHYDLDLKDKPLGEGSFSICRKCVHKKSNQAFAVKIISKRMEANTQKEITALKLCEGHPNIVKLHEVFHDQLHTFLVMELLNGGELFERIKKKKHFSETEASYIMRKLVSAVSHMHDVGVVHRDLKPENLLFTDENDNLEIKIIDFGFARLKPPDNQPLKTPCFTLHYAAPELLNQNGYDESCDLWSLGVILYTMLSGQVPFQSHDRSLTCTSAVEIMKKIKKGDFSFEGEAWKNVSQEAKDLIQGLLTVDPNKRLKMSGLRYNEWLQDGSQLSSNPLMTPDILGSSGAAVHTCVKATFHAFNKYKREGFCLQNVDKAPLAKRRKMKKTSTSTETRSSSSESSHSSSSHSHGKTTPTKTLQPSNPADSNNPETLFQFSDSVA
The target of assay [2] is T2, Cyclin-dependent kinase 2 (Homo sapiens, UniProt P24941). Kind of assay: Inhibitory concentration against selected kinase CDK2.
The target in assay [3] is T3, Dual specificity tyrosine-phosphorylation-regulated kinase 1A (Homo sapiens, UniProt Q13627). Kind of assay: Inhibitory concentration against selected kinase DYRK1-alpha.
For assay [4], the target named is T4, Ribosomal protein S6 kinase beta-1 (Homo sapiens, UniProt P23443). As to the kind of experiment: Inhibitory concentration against selected kinase p70S6K.
Target sequence in this assay (P23443 whole entry): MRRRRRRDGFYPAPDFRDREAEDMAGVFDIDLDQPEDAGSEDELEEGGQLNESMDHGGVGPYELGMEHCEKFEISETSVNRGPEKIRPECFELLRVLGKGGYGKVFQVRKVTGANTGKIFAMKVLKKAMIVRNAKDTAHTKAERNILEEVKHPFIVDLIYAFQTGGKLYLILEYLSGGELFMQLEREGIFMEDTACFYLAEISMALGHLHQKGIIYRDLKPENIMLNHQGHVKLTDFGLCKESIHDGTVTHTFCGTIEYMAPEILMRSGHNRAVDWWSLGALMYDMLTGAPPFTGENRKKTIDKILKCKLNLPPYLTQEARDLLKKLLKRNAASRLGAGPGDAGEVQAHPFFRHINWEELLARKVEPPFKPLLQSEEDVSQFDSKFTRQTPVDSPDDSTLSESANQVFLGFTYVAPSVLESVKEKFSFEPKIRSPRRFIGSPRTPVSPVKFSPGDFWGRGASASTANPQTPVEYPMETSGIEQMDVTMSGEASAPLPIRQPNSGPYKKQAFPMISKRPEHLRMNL
For assay [5], the target named is T5, Rho-associated protein kinase 1 (Homo sapiens, UniProt Q13464). As to the kind of experiment: Inhibitory concentration against selected kinase ROCK1.
Target sequence in this assay (Q13464 whole entry): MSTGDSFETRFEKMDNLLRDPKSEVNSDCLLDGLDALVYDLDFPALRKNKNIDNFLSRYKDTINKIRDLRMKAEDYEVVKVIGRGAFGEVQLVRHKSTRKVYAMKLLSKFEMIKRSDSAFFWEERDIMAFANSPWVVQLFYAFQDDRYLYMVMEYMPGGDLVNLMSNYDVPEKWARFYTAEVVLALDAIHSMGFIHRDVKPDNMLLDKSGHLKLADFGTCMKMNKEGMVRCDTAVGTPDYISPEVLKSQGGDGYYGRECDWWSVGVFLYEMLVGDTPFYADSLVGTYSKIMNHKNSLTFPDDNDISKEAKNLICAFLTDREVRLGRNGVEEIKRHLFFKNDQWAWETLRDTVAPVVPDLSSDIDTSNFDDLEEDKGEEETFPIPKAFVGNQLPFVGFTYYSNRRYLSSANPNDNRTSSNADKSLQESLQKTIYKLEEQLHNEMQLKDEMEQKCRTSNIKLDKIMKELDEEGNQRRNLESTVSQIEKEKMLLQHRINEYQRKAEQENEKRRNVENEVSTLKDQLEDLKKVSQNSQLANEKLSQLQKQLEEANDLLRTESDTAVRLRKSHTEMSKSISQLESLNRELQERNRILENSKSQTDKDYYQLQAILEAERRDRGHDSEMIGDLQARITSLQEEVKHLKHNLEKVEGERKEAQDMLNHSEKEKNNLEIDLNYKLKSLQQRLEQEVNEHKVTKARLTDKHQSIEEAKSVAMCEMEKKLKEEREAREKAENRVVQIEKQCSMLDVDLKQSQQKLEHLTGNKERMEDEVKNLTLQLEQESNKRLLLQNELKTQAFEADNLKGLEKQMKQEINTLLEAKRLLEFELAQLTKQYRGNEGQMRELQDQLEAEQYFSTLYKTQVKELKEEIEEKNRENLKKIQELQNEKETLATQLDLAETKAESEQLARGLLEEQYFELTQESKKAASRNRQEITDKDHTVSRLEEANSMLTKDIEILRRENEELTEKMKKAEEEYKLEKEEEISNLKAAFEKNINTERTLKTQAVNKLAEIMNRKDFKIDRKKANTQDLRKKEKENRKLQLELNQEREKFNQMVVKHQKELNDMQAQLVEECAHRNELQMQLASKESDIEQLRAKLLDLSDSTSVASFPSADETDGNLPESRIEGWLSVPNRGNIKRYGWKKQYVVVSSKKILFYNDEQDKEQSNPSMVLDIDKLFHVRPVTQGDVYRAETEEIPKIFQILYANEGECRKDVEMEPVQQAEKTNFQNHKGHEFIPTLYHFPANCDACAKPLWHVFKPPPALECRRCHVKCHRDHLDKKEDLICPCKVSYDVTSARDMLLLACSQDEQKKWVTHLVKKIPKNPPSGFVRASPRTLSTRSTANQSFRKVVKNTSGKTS
The target in assay [6] is Casein kinase II (Homo sapiens) (UniProt P67870+P68400+P19784). Kind of assay: Percent inhibition against CK2 at 10 uM using 100 uM ATP. It is filed as protein-complex assay.
Assay [7] addresses Ribosomal protein S6 kinase alpha-1 (Homo sapiens) (UniProt Q15418). Kind of assay: Percent inhibition against MAPKAP-K1a at 10 uM using 100 uM ATP.
In assay [8] the target is T4, Ribosomal protein S6 kinase beta-1. The note with it: 10 uM.
Target sequence in this assay (P23443 whole entry, looked up): as the sequence (P23443 whole entry) above
Description: Percent inhibition against p70S6K at 10 uM using 100 uM ATP
The target of assay [9] is T3, Dual specificity tyrosine-phosphorylation-regulated kinase 1A. Kind of assay: Percent inhibition against DYRK1a at 10 uM using 100 uM ATP.
For assay [10], the target named is Protein kinase C alpha type (Homo sapiens) (UniProt P17252). As to the kind of experiment: Percent inhibition against PKCalpha at 10 uM using 100 uM ATP.
Assay [11] has as its target 5'-AMP-activated protein kinase catalytic subunit alpha-1 (Homo sapiens) (UniProt Q13131). Kind of assay: Percent inhibition against AMPK at 10 uM using 100 uM ATP.
The target in assay [12] is T2, Cyclin-dependent kinase 2. Kind of assay: Percent inhibition against CDK2 at 10 uM using 100 uM ATP.
For assay [13], the target named is Mitogen-activated protein kinase 14 (Homo sapiens) (UniProt Q16539). As to the kind of experiment: Percent inhibition against p38-alpha at 10 uM using 100 uM ATP.
Assay [14] concerns the target T1, Ribosomal protein S6 kinase alpha-5. As to the kind of experiment: Percent inhibition against MSK1 at 10 uM using 100 uM ATP.
Target sequence in this assay (O75582 whole entry, looked up): as the sequence (O75582 whole entry) above
In assay [15] the target is Serine/threonine-protein kinase Chk1 (Homo sapiens) (UniProt O14757). Kind of assay: Percent inhibition against Chk1 at 10 uM using 100 uM ATP.
In assay [16] the target is Mitogen-activated protein kinase 1 (Homo sapiens) (UniProt P28482). Kind of assay: Percent inhibition against MAPK2 at 10 uM using 100 uM ATP.
Assay [17] concerns the target Mitogen-activated protein kinase 8 (Homo sapiens) (UniProt P45983). As to the kind of experiment: Percent inhibition against JNK1 at 10 uM using 100 uM ATP.
The target in assay [18] is cAMP-dependent protein kinase (PKA) (Homo sapiens) (UniProt P22694+P17612+P22612). As to the kind of experiment: Percent inhibition against PKA at 10 uM using 100 uM ATP. It is filed as protein assay.
The target of assay [19] is Serine/threonine-protein kinase Sgk1 (Homo sapiens) (UniProt O00141). As to the kind of experiment: Percent inhibition against SGK at 10 uM using 100 uM ATP.
For assay [20], the target named is T5, Rho-associated protein kinase 1. To be noted: 10 uM.
Description: Percent inhibition against ROCK1 at 10 uM using 100 uM ATP
Assay [21] addresses Glycogen synthase kinase-3 beta (Homo sapiens) (UniProt P49841). Kind of assay: Percent inhibition against GSK3-beta at 10 uM using 100 uM ATP.
The target of assay [22] is Mitogen-activated protein kinase 11 (Homo sapiens) (UniProt Q15759). Kind of assay: Percent inhibition against p38b at 10 uM using 100 uM ATP.
The target of assay [23] is Mitogen-activated protein kinase 13 (Homo sapiens) (UniProt O15264). As to the kind of experiment: Percent inhibition against p38d at 10 uM using 100 uM ATP.
Assay [24] has as its target 3-phosphoinositide-dependent protein kinase 1 (Homo sapiens) (UniProt O15530). As to the kind of experiment: Percent inhibition against PDK1 at 10 uM using 100 uM ATP.
Assay [25] concerns the target MAP kinase-activated protein kinase 2 (Homo sapiens) (UniProt P49137). Kind of assay: Percent inhibition against MAPKAP-K2 at 10 uM using 100 uM ATP.
Assay [26] deals with Dual specificity mitogen-activated protein kinase kinase 1 (Homo sapiens) (UniProt Q02750). As to the kind of experiment: Percent inhibition against MKK1 at 10 uM using 100 uM ATP.

SMILES strings stand for the structures. Bounds are passed on as bounds.

Mitogen-activated protein kinase 11 (Homo sapiens), sequence (Q15759 whole entry): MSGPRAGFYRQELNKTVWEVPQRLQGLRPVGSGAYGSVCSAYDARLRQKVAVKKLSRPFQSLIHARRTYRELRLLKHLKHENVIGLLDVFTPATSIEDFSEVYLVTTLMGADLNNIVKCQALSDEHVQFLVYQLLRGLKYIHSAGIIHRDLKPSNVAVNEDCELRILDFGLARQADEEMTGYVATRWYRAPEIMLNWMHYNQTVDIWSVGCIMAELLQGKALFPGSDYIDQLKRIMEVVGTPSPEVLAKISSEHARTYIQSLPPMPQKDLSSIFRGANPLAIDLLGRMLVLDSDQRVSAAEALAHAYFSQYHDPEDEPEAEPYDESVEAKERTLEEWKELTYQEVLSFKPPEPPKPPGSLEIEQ
Mitogen-activated protein kinase 8 (Homo sapiens), sequence (P45983 whole entry): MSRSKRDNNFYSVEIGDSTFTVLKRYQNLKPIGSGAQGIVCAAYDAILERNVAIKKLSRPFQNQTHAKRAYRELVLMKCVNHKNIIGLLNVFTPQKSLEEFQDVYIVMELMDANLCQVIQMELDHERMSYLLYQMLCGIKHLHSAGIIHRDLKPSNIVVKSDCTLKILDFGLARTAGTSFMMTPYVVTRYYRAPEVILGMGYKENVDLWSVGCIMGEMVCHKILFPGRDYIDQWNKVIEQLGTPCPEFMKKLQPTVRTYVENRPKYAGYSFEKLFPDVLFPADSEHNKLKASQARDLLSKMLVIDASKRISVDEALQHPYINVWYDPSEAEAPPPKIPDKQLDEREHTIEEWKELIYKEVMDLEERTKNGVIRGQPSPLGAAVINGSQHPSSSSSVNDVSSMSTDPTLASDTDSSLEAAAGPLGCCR
5'-AMP-activated protein kinase catalytic subunit alpha-1 (Homo sapiens), sequence (Q13131 whole entry, looked up): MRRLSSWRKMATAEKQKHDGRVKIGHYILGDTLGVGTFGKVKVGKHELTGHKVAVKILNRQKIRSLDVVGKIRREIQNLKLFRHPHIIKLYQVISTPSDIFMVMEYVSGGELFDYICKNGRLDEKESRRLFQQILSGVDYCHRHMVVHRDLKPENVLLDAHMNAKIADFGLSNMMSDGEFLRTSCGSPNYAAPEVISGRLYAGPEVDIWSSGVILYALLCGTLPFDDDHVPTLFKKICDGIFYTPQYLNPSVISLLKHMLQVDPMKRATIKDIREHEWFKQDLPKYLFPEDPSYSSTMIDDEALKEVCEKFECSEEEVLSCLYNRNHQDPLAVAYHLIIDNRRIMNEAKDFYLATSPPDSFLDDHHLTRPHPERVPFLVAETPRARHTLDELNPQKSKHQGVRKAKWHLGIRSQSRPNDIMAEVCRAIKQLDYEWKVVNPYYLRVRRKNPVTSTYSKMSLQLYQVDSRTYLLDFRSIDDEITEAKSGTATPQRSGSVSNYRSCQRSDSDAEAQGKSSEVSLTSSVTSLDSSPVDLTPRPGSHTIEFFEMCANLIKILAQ

`CCc1nccc2c1nc(-c1nonc1N)n2CC` displayed an IC50 in [1] of 229 nM.
On to `CCn1c(-c2nonc2N)nc2cncc(CNC3CCNCC3)c21`, for which the IC50 is greater than 10000 nM in [2]; 4900 nM in assay [3]; 270 nM in [4]; 100 nM in assay [5]; 0.5 nM in assay [1].
In assay [1], `CCn1c(-c2nonc2N)nc2c(Oc3ccccc3)nccc21` had a concentration for half-maximal inhibition (IC50) of 10000 nM.
As for `CCn1c(-c2nonc2N)nc2c(OC)nccc21`, the IC50 in [1] amounted to 209 nM.
`CCn1c(-c2nonc2N)nc2cnccc21`: the inhibition in [6] came to 15%; in [7], 97%; in assay [8], 95%; in [9] it was 94%; in assay [10], 56%; in assay [11], 59%. Further, the inhibition was 84% in assay [12]; -7% in [13]; 96% in assay [14]; -6% in assay [15]; 41% in assay [16]; 13% in [17]. The inhibition in assay [18] came out at 75%; in [19], 67%; in assay [20] it was 90%; in assay [21], 90%; in assay [22] it was 18%; in [23], 6%. In addition, the inhibition was determined as 32% in assay [24], 12% in [25] and 17% in assay [26]. The IC50 in assay [2] was 169 nM; in [3], 110 nM; in assay [4], 70 nM; in [5], 13 nM; in [1] it was 3 nM.
Take `Nc1nonc1-c1nc2cnccc2n1C1CCCCC1`: in assay [1], it took 3 nM to reach half-maximal inhibition (IC50). That is a single-digit nanomolar value.
On the same count and under the same terms, next, `CCn1c(-c2nonc2N)nc2c(N3CCCC3)nccc21`: 2240 nM.
For `CCn1c(-c2nonc2N)nc2c(C)nccc21`, the IC50 in assay [1] turned out to be 8 nM.
As for `Nc1nonc1-c1nc2cnccc2n1-c1ccccc1`, in assay [1], the IC50 is 6 nM.
Consider `Nc1nonc1-c1nc2cnccc2n1C1CCCNC1` (racemic), for which, in [1], 2 nM corresponded to half-maximal inhibition (IC50). Compared with the last compound, the IC50 is about 3-fold lower.
The same measure, in the same setting: next, `CCn1c(-c2nonc2N)nc2cncc(CN3CCCCC3)c21`: 7 nM; `Nc1nonc1-c1nc2cnccc2n1C1CCNCC1`: 17 nM; `NCc1cccc(-n2c(-c3nonc3N)nc3cnccc32)c1`: 2.5 nM.
On the same count and under the same terms, next, `NCCCn1c(-c2nonc2N)nc2cnccc21`: 22 nM; `NCc1ccc(-n2c(-c3nonc3N)nc3cnccc32)cc1`: 4 nM; `CCOc1nccc2c1nc(-c1nonc1N)n2CC`: 174 nM.
Still for that read-out and setting: next, `CN(C)CCCn1c(-c2nonc2N)nc2cnccc21`: 617 nM.
Take `CCn1c(-c2nonc2N)nc2cncc(CN3CCC(N)CC3)c21`: the IC50 in [1] is 3 nM. This IC50 is about 210-fold lower than that of the compound before.
In turn, `CCn1c(-c2nonc2N)nc2c(-c3ccccc3)nccc21` had an IC50 in [1] of 813 nM.
`CCn1c(-c2nonc2N)nc2cncc(CN3CCNCC3)c21`: in assay [1], the IC50 came to 1.4 nM.
For `NCCCCn1c(-c2nonc2N)nc2cnccc21`, the IC50 in assay [1] amounted to 13 nM.
The same measure, in the same setting: in the case of `CCn1c(-c2nonc2N)nc2c(Cl)nccc21` it was 4 nM; in that of `Nc1nonc1-c1nc2cnccc2n1C1CC1`, 1.5 nM.
